Experimental data taken from PMC9865363, “Identification of Human UDP-Glucuronosyltransferase Involved in Gypensapogenin C Glucuronidation and Species Differences” (International Journal of Molecular Sciences, 2023).

Experiments:
recombinant human UGT1A4 = molecular target: T1, recombinant human UGT1A4 (Homo sapiens, UniProt P22310); assay: Recombinant human UGT enzyme assay of GPC glucuronidation, UGT1A4; assay type: in vitro ADME; settings: recombinant UGT1A4 0.1 mg/mL, GPC 1 and 10 μM
T1 construct: purchased Cypex (Scotland, UK)
T1 sequence (P22310 29-534): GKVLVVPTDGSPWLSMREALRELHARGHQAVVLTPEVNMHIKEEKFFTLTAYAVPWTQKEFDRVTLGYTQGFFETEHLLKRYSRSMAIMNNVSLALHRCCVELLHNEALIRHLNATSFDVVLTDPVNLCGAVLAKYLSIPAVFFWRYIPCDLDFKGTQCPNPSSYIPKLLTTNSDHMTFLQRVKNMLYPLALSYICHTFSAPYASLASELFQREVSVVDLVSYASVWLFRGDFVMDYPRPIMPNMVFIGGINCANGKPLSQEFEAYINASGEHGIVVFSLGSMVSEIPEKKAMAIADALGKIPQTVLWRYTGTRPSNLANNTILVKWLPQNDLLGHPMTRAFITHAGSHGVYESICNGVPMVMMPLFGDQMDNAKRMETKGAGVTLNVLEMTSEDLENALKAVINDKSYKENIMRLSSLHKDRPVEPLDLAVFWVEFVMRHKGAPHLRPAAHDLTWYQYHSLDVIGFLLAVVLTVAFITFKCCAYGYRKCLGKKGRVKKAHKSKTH
Protocol: (§1) The glucuronidation incubation system consisted of Tris-HCl buffer (50 mM, pH = 7.4), magnesium chloride (4 mM), alamethicin (12.5 μg/mL), human liver microsomes (0.5 mg/mL), UDPGA (100 mM), and GPC (20 μM).
(§2) The glucuronidation metabolic activity of GPC at two concentration levels (1 and 10 μM) was determined using an incubation system with 10 recombinant human UGT enzymes (UGT1A1, 1A3, 1A4, 1A6, 1A7, 1A8, 1A9, 1A10, 2B7, 2B17) (0.1 mg/mL). The incubation conditions were the same as in Section 4.3, except for the protein concentration of 0.1 mg/mL. Lastly, metabolites were detected using LC–MS/MS.

[1] = tested on: recombinant human UGT1A1, 1A3, 1A6, 1A7, 1A8, 1A9, 1A10, 2B7, and 2B17; assay: Recombinant human UGT enzyme assay of GPC glucuronidation, remaining isoenzymes; assay type: in vitro ADME; settings: remaining recombinant UGT isoenzymes 0.1 mg/mL, GPC 1 and 10 μM
Protocol: as §1, §2

[2] = GPC glucuronidation in rat liver microsomes (enzyme kinetics, species comparison); settings: Sprague-Dawley, rat, rat liver microsomes, pH 7.4
[3] = tested on: glucuronidation (GPCG formation); assay: as above; settings: Sprague-Dawley, rat, rat liver microsomes, pH 7.4
[4] = tested on: rat liver microsomes (RLM); assay: as above; settings: 30 min
[5] = GPC glucuronidation in dog liver microsomes (enzyme kinetics, species comparison); settings: Beagle, dog, dog liver microsomes, pH 7.4
[6] = tested on: dog liver microsomes (DLM); assay: as above; settings: 30 min
[7] = tested on: glucuronidation (GPCG formation); assay: as above; settings: Beagle, dog, dog liver microsomes, pH 7.4
[8] = GPC glucuronidation in pig liver microsomes (enzyme kinetics, species comparison); settings: minipig, pig, pig liver microsomes, pH 7.4
[9] = tested on: glucuronidation (GPCG formation); assay: as above; settings: pig, pig liver microsomes, pH 7.4
[10] = tested on: pig liver microsomes (PLM); assay: as above; settings: 30 min
[11] = GPC glucuronidation in human liver microsomes (enzyme kinetics, species comparison); settings: human, human liver microsomes, pH 7.4
[12] = tested on: glucuronidation (GPCG formation); assay: as above; settings: human, human liver microsomes, pH 7.4
[13] = tested on: human liver microsomes (HLMs); assay: as above; settings: 30 min
[14] = GPC glucuronidation in mouse liver microsomes (enzyme kinetics, species comparison); settings: ICR/CD-1, mouse, mouse liver microsomes, pH 7.4
[15] = tested on: glucuronidation (GPCG formation); assay: as above; settings: ICR/CD-1, mouse, mouse liver microsomes, pH 7.4
[16] = tested on: mouse liver microsomes (MLM); assay: as above; settings: MLMs 0.2 mg/mL, GPC 2–200 μM, 30 min, substrate inhibition fit
[17] = GPC glucuronidation in rabbit liver microsomes (enzyme kinetics, species comparison); settings: New Zealand, rabbit, rabbit liver microsomes, pH 7.4
[18] = tested on: glucuronidation (GPCG formation); assay: as above; settings: New Zealand, rabbit, rabbit liver microsomes, pH 7.4
[19] = tested on: rabbit liver microsomes (RaLM); assay: as above; settings: RaLMs 0.2 mg/mL, GPC 2–200 μM, 30 min, substrate inhibition fit
[20] = GPC glucuronidation in bovine liver microsomes (enzyme kinetics, species comparison); settings: bovine, bovine liver microsomes, pH 7.4
[21] = tested on: bovine liver microsomes (BLM); assay: as above; settings: 30 min
[22] = tested on: glucuronidation (GPCG formation); assay: as above; settings: bovine, bovine liver microsomes, pH 7.4
[23] = GPC glucuronidation in monkey liver microsomes (enzyme kinetics, species comparison); settings: monkey, monkey liver microsomes, pH 7.4
[24] = tested on: glucuronidation (GPCG formation); assay: as above; settings: monkey, monkey liver microsomes, pH 7.4
[25] = tested on: monkey liver microsomes (MkLM); assay: as above; settings: 30 min
[26] = tested on: GPC glucuronidation in human liver microsomes; assay: Chemical inhibition of GPC glucuronidation in human liver microsomes; settings: GPC 15 μM, HLMs 0.2 mg/mL, 30 min
Protocol: (§3) The glucuronidation incubation system consisted of Tris-HCl buffer (50 mM, pH = 7.4), magnesium chloride (4 mM), alamethicin (12.5 μg/mL), human liver microsomes (0.5 mg/mL), UDPGA (100 mM), and GPC (20 μM). […] The incubation system was first preincubated at 37 °C for 3 min before adding UDPGA to initiate the reaction. The reaction was terminated […] with the addition of an equal volume of iced acetonitrile (containing 30 μM PPT). After vortexing for 3 min, the supernatant obtained was centrifuged at 14,300 rpm for 15 min at 4 °C and used for LC–MS/MS analysis.
(§4) Glucuronidation metabolism of GPC in HLMs was inhibited using hecogenin, phenylbutazone, fluconazole, and magnolol. The concentrations of the four inhibitors were set to 1, 10, 50, and 200 μM, and the concentration of GPC was set to 15 μM. The incubation time and protein concentration were […], respectively. All the rest of the incubation conditions were as in Section 4.3. The incubation without inhibitor but with the same volume of DMSO was set to be the solvent control.

GPC glucuronidation = assay: as above; settings: human, pH 7.4
Protocol: as §3, §4

[27] = inhibitor 1, 10, 50, and 200 μM

Compound: CC(C)=C1CC=C([C@H]2CC[C@]3(C)[C@@H]2CC[C@@H]2[C@@]4(C)CC[C@H](O)C(C)(C)[C@@H]4CC[C@]23C)C1=O [GPC, Gypensapogenin C]
- catalytic activity for GPC glucuronidation (recombinant human UGT1A4): highest catalytic activity
- catalytic activity for GPC glucuronidation [1]: none of the remaining UGT isoenzymes showed activity
- microsomal CLint [2]: 40 µL/min/mg
- Km at 30 min [3]: 94.1 ± 89.8 µM
- Vmax ([4]; RLMs 0.2 mg/mL, GPC 2–200 μM, substrate inhibition fit): 3.80 ± 3.01 nmol/min/mg
- GPC glucuronidation product generation (semiquantitative, peak area ratio) ([4]; rat liver microsomes 0.2 mg/mL, GPC 10 and 50 μM): Trace amounts
- microsomal CLint [5]: 2120 µL/min/mg
- Vmax ([6]; DLMs 0.2 mg/mL, GPC 2–200 μM, substrate inhibition fit): 20.28 ± 2.57 nmol/min/mg
- GPC glucuronidation product generation (semiquantitative, peak area ratio) ([6]; dog liver microsomes 0.2 mg/mL, GPC 10 and 50 μM): highest amounts
- Km at 30 min [7]: 9.56 ± 2.83 µM
- microsomal CLint [8]: 147 µL/min/mg
- Km at 30 min [9]: 9.58 ± 2.32 µM
- Vmax ([10]; PLMs 0.2 mg/mL, GPC 2–200 μM, substrate inhibition fit): 1.41 ± 0.18 nmol/min/mg
- GPC glucuronidation product generation (semiquantitative, peak area ratio) ([10]; pig liver microsomes 0.2 mg/mL, GPC 10 and 50 μM): Trace amounts
- microsomal CLint [11]: 27 µL/min/mg
- Km at 30 min [12]: 15.4 ± 5.26 µM
- Vmax ([13]; HLMs 0.2 mg/mL, GPC 2–200 μM, substrate inhibition fit): 0.42 ± 0.09 nmol/min/mg
- GPC glucuronidation product generation (semiquantitative, peak area ratio) ([13]; human liver microsomes 0.2 mg/mL, GPC 10 and 50 μM): Trace amounts
- microsomal CLint [14]: 690 µL/min/mg
- Km at 30 min [15]: 10 ± 2.1 µM
- Vmax [16]: 6.93 ± 0.69 nmol/min/mg
- microsomal CLint [17]: 304 µL/min/mg
- Km at 30 min [18]: 16.2 ± 3.77 µM
- Vmax [19]: 4.92 ± 0.57 nmol/min/mg
- microsomal CLint [20]: 259 µL/min/mg
- Vmax ([21]; BLMs 0.2 mg/mL, GPC 2–200 μM, substrate inhibition fit): 3.17 ± 0.89 nmol/min/mg
- GPC glucuronidation product generation (semiquantitative, peak area ratio) ([21]; bovine liver microsomes 0.2 mg/mL, GPC 10 and 50 μM): Trace amounts
- Km at 30 min [22]: 12.2 ± 5.16 µM
- microsomal CLint [23]: 77 µL/min/mg
- Km at 30 min [24]: 107 ± 73.2 µM
- Vmax ([25]; MkLMs 0.2 mg/mL, GPC 2–200 μM, substrate inhibition fit): 8.29 ± 4.69 nmol/min/mg
- GPC glucuronidation product generation (semiquantitative, peak area ratio) ([25]; monkey liver microsomes 0.2 mg/mL, GPC 10 and 50 μM): Trace amounts

Compound: C=CCc1ccc(O)c(-c2cc(CC=C)ccc2O)c1 [Magnolol, magnolol]
- inhibition of GPC glucuronidation (in words) ([26]; inhibitor 1–50 μM): insignificant inhibition
- inhibition at 30 min, 200 μM (GPC glucuronidation): 50%

Compound: OC(Cn1cncn1)(Cn1cncn1)c1ccc(F)cc1F [fluconazole]
- inhibition of GPC glucuronidation (in words) [26, 27]: Neither fluconazole nor phenylbutazone inhibited

Compound: CCCCC1C(=O)N(c2ccccc2)N(c2ccccc2)C1=O [phenylbutazone]
- inhibition of GPC glucuronidation (in words) [26, 27]: Neither fluconazole nor phenylbutazone inhibited

Compound: hecogenin
- inhibition of GPC glucuronidation ([26]; inhibitor 1 μM): more than 40%
- inhibition of GPC glucuronidation ([26]; inhibitor 10 μM): 70%
